Results: patent US20230111310A1, “CARBOXYLIC ACID DERIVATIVE-SUBSTITUTED IMINO ARYL COMPOUND, PREPARATION METHOD THEREFOR, HERBICIDAL COMPOSITION AND USE THEREOF” (Qingdao Kingagroot Chemical Compound Co., Ltd., priority 2020, published 2023)

Assays:
Test in all cases: Weeding effect in post-emergence stage
Type in all cases: in vivo
Eleusine indica = settings: for Weeding effect in post-emergence stage, Eleusine indica (level): fresh weight control rate level; for Weeding effect in post-emergence stage, Eleusine indica: level of fresh weight growth control rate
In short: (§1)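 Pot-grown weeds were sprayed at the 2-3 leaf stage, 2 weeks after sowing, with compound in acetone plus Tween 80 and 1.5 liter/ha methyl oleate emulsifiable concentrate, diluted in water. Doses were 500, 250, 125, 60, 30, 15, 7.5 g/ha. Growth control was scored after 3 weeks in greenhouse; mean of three replicates.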

Digitaria sanguinalis = settings: for Weeding effect in post-emergence stage, Digitaria sanguinalis (level): fresh weight control rate level; for Weeding effect in post-emergence stage, Digitaria sanguinalis: level of fresh weight growth control rate
In short: as §1

Alopecurus japonicus = settings: for Weeding effect in post-emergence stage, Alopecurus japonicus (level): fresh weight control rate level; for Weeding effect in post-emergence stage, Alopecurus japonicus: level of fresh weight growth control rate
In short: as §1

Setaria viridis = settings: for Weeding effect in post-emergence stage, Setaria viridis (level): fresh weight control rate level; for Weeding effect in post-emergence stage, Setaria viridis: level of fresh weight growth control rate
In short: as §1

Abutilon theophrasti = settings: for Weeding effect in post-emergence stage, Abutilon theophrasti (level): fresh weight control rate level; for Weeding effect in post-emergence stage, Abutilon theophrasti: level of fresh weight growth control rate
In short: as §1

Echinochloa crusgalli = settings: for Weeding effect in post-emergence stage, Echinochloa crusgalli (level): fresh weight control rate level; for Weeding effect in post-emergence stage, Echinochloa crusgalli: level of fresh weight growth control rate
In short: as §1

With `COC(=O)C(CCO)O/N=C/c1cc(-n2c(=O)cc(C(F)(F)F)n(C)c2=O)c(F)cc1Cl` (stereo not drawn) [Compound 496] the “Weeding effect in post-emergence stage, Eleusine indica (level)” value (from here on “Weeding effect … Eleusine indica (level)”) (Eleusine indica; Dose 15 g/ha) was 5 (Level 5: growth control rate is above 85%), the “Weeding effect in post-emergence stage, Digitaria sanguinalis (level)” value (shortened to “Weeding effect … Digitaria sanguinalis (level)”) (Digitaria sanguinalis; Dose 15 g/ha) was 5 (Level 5: growth control rate is above 85%) and the “Weeding effect in post-emergence stage, Alopecurus japonicus (level)” value (from here on “Weeding effect … Alopecurus japonicus (level)”) (Alopecurus japonicus; Dose 15 g/ha) was 5 (Level 5: growth control rate is above 85%). The “Weeding effect in post-emergence stage, Setaria viridis (level)” value (“Weeding effect … Setaria viridis (level)” below) (Setaria viridis; Dose 15 g/ha) was 5 (Level 5: growth control rate is above 85%), the “Weeding effect in post-emergence stage, Abutilon theophrasti (level)” value (from here on “Weeding effect … Abutilon theophrasti (level)”) (Abutilon theophrasti; Dose 15 g/ha) was 5 (Level 5: growth control rate is above 85%) and the “Weeding effect in post-emergence stage, Echinochloa crusgalli (level)” value (“Weeding effect … Echinochloa crusgalli (level)” below) (Echinochloa crusgalli; Dose 15 g/ha) was 5 (Level 5: growth control rate is above 85%).
In the case of `CCOC(=O)C(C)O/N=C/c1cc(-n2c(=O)n(C)c(=S)n(C)c2=O)c(F)cc1C(F)(F)F` (racemic) [Compound 86], the “Weeding effect in post-emergence stage, Eleusine indica” value (Eleusine indica; Dose 15 g/ha) is reported as 5 (Level 5: growth control rate is above 85%), the “Weeding effect in post-emergence stage, Digitaria sanguinalis” value (Digitaria sanguinalis; Dose 15 g/ha) is reported as 3 (Level 3: growth control rate is greater than or equal to 40% and less than 60%) and the “Weeding effect in post-emergence stage, Alopecurus japonicus” value (Alopecurus japonicus; Dose 15 g/ha) is reported as 3 (Level 3: growth control rate is greater than or equal to 40% and less than 60%). The “Weeding effect in post-emergence stage, Setaria viridis” value (Setaria viridis; Dose 15 g/ha) was 4 (Level 4: growth control rate is greater than or equal to 60% and less than 85%), the “Weeding effect in post-emergence stage, Abutilon theophrasti” value (Abutilon theophrasti; Dose 15 g/ha) was 5 (Level 5: growth control rate is above 85%) and the “Weeding effect in post-emergence stage, Echinochloa crusgalli” value (Echinochloa crusgalli; Dose 15 g/ha) was 4 (Level 4: growth control rate is greater than or equal to 60% and less than 85%).
`CC(Cl)=CCOC(=O)C(C)ON=Cc1cc(-n2c(=O)cc(C(F)(F)F)n(C)c2=O)c(F)cc1Cl` (stereo not drawn) [Compound 500] was tested, and the “Weeding effect … Eleusine indica (level)” value (Eleusine indica; Dose 15 g/ha) was 5 (Level 5: growth control rate is above 85%), the “Weeding effect … Digitaria sanguinalis (level)” value (Digitaria sanguinalis; Dose 15 g/ha) was 5 (Level 5: growth control rate is above 85%) and the “Weeding effect … Alopecurus japonicus (level)” value (Alopecurus japonicus; Dose 15 g/ha) was 5 (Level 5: growth control rate is above 85%). For the same compound, the “Weeding effect … Setaria viridis (level)” value (Setaria viridis; Dose 15 g/ha) was 5 (Level 5: growth control rate is above 85%), the “Weeding effect … Abutilon theophrasti (level)” value (Abutilon theophrasti; Dose 15 g/ha) was 5 (Level 5: growth control rate is above 85%) and the “Weeding effect … Echinochloa crusgalli (level)” value (Echinochloa crusgalli; Dose 15 g/ha) was 5 (Level 5: growth control rate is above 85%).
In the case of `CCOC(=O)[C@H](O/N=C/c1cc(-n2c(=O)cc(C(F)(F)F)n(C)c2=O)c(F)cc1Cl)C1CC1` [319(R)], the “Weeding effect in post-emergence stage, Eleusine indica” value (Eleusine indica; Dose 30 g/ha) is reported as 5 (Level 5: growth control rate is above 85%), the “Weeding effect in post-emergence stage, Digitaria sanguinalis” value (Digitaria sanguinalis; Dose 30 g/ha) is reported as 5 (Level 5: growth control rate is above 85%) and the “Weeding effect in post-emergence stage, Alopecurus japonicus” value (Alopecurus japonicus; Dose 30 g/ha) is reported as 5 (Level 5: growth control rate is above 85%). For the same compound, the “Weeding effect in post-emergence stage, Setaria viridis” value (Setaria viridis; Dose 30 g/ha) was 5 (Level 5: growth control rate is above 85%), the “Weeding effect in post-emergence stage, Abutilon theophrasti” value (Abutilon theophrasti; Dose 30 g/ha) was 5 (Level 5: growth control rate is above 85%) and the “Weeding effect in post-emergence stage, Echinochloa crusgalli” value (Echinochloa crusgalli; Dose 30 g/ha) was 5 (Level 5: growth control rate is above 85%).
In the case of `CC(O/N=C/c1cc(-n2c(=O)n(C)c(=S)n(C)c2=O)c(F)cc1Cl)C(=O)OCCCF` (racemic) [Compound 11], the “Weeding effect in post-emergence stage, Eleusine indica” value (Eleusine indica; Dose 15 g/ha) is reported as 5 (Level 5: growth control rate is above 85%), the “Weeding effect in post-emergence stage, Digitaria sanguinalis” value (Digitaria sanguinalis; Dose 15 g/ha) is reported as 5 (Level 5: growth control rate is above 85%) and the “Weeding effect in post-emergence stage, Alopecurus japonicus” value (Alopecurus japonicus; Dose 15 g/ha) is reported as 5 (Level 5: growth control rate is above 85%). For the same compound, the “Weeding effect in post-emergence stage, Setaria viridis” value (Setaria viridis; Dose 15 g/ha) was 5 (Level 5: growth control rate is above 85%), the “Weeding effect in post-emergence stage, Abutilon theophrasti” value (Abutilon theophrasti; Dose 15 g/ha) was 5 (Level 5: growth control rate is above 85%) and the “Weeding effect in post-emergence stage, Echinochloa crusgalli” value (Echinochloa crusgalli; Dose 15 g/ha) was 5 (Level 5: growth control rate is above 85%).
For `CCC(O/N=C/c1cc(-n2c(=O)n(C)c(=S)n(C)c2=O)c(F)cc1Cl)C(=O)OC` (stereo not drawn) [Compound 72], the “Weeding effect in post-emergence stage, Eleusine indica” value (Eleusine indica; Dose 15 g/ha) was 5 (Level 5: growth control rate is above 85%), the “Weeding effect in post-emergence stage, Digitaria sanguinalis” value (Digitaria sanguinalis; Dose 15 g/ha) was 5 (Level 5: growth control rate is above 85%) and the “Weeding effect in post-emergence stage, Alopecurus japonicus” value (Alopecurus japonicus; Dose 15 g/ha) was 4 (Level 4: growth control rate is greater than or equal to 60% and less than 85%). The “Weeding effect in post-emergence stage, Setaria viridis” value (Setaria viridis; Dose 15 g/ha) was 5 (Level 5: growth control rate is above 85%), the “Weeding effect in post-emergence stage, Abutilon theophrasti” value (Abutilon theophrasti; Dose 15 g/ha) was 5 (Level 5: growth control rate is above 85%) and the “Weeding effect in post-emergence stage, Echinochloa crusgalli” value (Echinochloa crusgalli; Dose 15 g/ha) was 5 (Level 5: growth control rate is above 85%).
With `COC(=O)C(C)O/N=C/c1cc(N2C(=O)CC(N)(C(F)(F)F)N(C)C2=O)c(F)cc1Cl` (stereo not drawn) [Compound 432] the “Weeding effect … Eleusine indica (level)” value (Eleusine indica; Dose 15 g/ha) was 5 (Level 5: growth control rate is above 85%), the “Weeding effect … Digitaria sanguinalis (level)” value (Digitaria sanguinalis; Dose 15 g/ha) was 5 (Level 5: growth control rate is above 85%) and the “Weeding effect … Alopecurus japonicus (level)” value (Alopecurus japonicus; Dose 15 g/ha) was 5 (Level 5: growth control rate is above 85%). The “Weeding effect … Setaria viridis (level)” value (Setaria viridis; Dose 15 g/ha) was 5 (Level 5: growth control rate is above 85%), the “Weeding effect … Abutilon theophrasti (level)” value (Abutilon theophrasti; Dose 15 g/ha) was 5 (Level 5: growth control rate is above 85%) and the “Weeding effect … Echinochloa crusgalli (level)” value (Echinochloa crusgalli; Dose 15 g/ha) was 5 (Level 5: growth control rate is above 85%).
